SMILES strings stand for the structures.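 Grown in 96-well plates, cells were treated for 48 hours with each compound at five concentrations. Insufficient inhibition: endpoint recorded as highest concentration tested. GI50: concentration for 50% inhibition of growth.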 The source made the active and inactive calls. Cut-off read from the data, not from the text of the source: active = GI50 up to about 1.1 µM and inactive = higher.

What all share (experiment): growth of human tumour cells (NCI), 48 h
The test system of experiment [1] is 786-0.
Experiment [2] has as its system ACHN.
Experiment [3] deals with BT-549.
The subject of experiment [4] is HOP-62.
In experiment [5] the test system is MCF7.
Experiment [6] deals with MDA-MB-231.
Experiment [7] concerns MDA-MB-435.
The test system of experiment [8] is NCI-H226.
For experiment [9], the system named is NCI-H460.
Experiment [10] relates to NCI-H522.
For experiment [11], the system named is NCI/ADR-RES.
In experiment [12] the test system is OVCAR-4.
The subject of experiment [13] is RPMI-8226.
Experiment [14] has as its system SR.
Experiment [15] deals with TK-10.
Experiment [16] deals with UACC-257.
The test system of experiment [17] is A498.
The test system of experiment [18] is HCC 2998.
In experiment [19] the test system is MDA-N.

Turning to `COc1ccc(C(c2cc3c(cc2O)OCO3)N2CCOCC2)cc1OC` (configuration not stated), the GI50 in experiment [1] was 11.1 µM (inactive); in experiment [2], 11.4 µM (inactive); in [3] it was 5.28 µM (inactive); in experiment [4] it was 15.7 µM (inactive); in [5] it was 12.8 µM (inactive); in experiment [6] it was 3.5 µM (inactive). Also, the GI50 in [7] is 11.3 µM (inactive); in experiment [8], 11.1 µM (inactive); in [9], 22 µM (inactive); in experiment [10] it was 3.28 µM (inactive); in experiment [11], 5.89 µM (inactive); in experiment [12] it was 15.6 µM (inactive). In addition, the GI50 in [13] was 2.66 µM (inactive); in experiment [14], 1.89 µM (inactive); in experiment [15], 13.4 µM (inactive); in experiment [16], 15.7 µM (inactive).

With `O=C(Nc1ccc([N+](=O)[O-])cc1[N+](=O)[O-])C(=O)C(C(=O)c1ccc2ccccc2c1)C1OC(=O)c2ccccc21` (configuration not stated), the GI50 in experiment [17] was 17.6 µM (inactive); in experiment [2] it was 25.6 µM (inactive); in [18], 12.4 µM (inactive); in [4] it was 22.4 µM (inactive); in experiment [8], 2.69 µM (inactive); in experiment [9] it was 13.2 µM (inactive). Further, the GI50 was 10.4 µM (inactive) in [10]; 12.8 µM (inactive) in [12]; 9.44 µM (inactive) in experiment [13]; 0.817 µM (active) in experiment [14]; 24.1 µM (inactive) in experiment [15]; 24.4 µM (inactive) in experiment [16].

Turning to `Cc1ccc(S(=O)(=O)NNC2Oc3cc4c(cc3C(c3ccccc3O)C2C)OCO4)cc1` (configuration not stated), the GI50 is 16.8 µM (inactive) in [17]; 13.2 µM (inactive) in experiment [2]; 13 µM (inactive) in [3]; 16.9 µM (inactive) in [18]; 15.1 µM (inactive) in experiment [4]; 14.9 µM (inactive) in [5]. Further, the GI50 in [6] was 16 µM (inactive); in [7], 13 µM (inactive); in [19], 12.3 µM (inactive); in experiment [8] it was 12.4 µM (inactive); in experiment [9], 12.1 µM (inactive); in experiment [10] it was 12.4 µM (inactive). The GI50 in experiment [13] is 12.2 µM (inactive); in experiment [14], 13.3 µM (inactive); in experiment [15] it was 15.5 µM (inactive); in experiment [16], 10.8 µM (inactive).

For the molecule `Cc1cc2nc3c(C)c4ccccc4c(C)n3c2cc1C`, the GI50 in [1] was 1.24 µM (inactive); in experiment [2] it was 1.67 µM (inactive); in experiment [3], 6.07 µM (inactive); in experiment [18] it was 3.33 µM (inactive); in experiment [4], 2.19 µM (inactive); in [5] it was 1.49 µM (inactive). In addition, the GI50 in experiment [6] is 1.62 µM (inactive); in experiment [7], 3.02 µM (inactive); in experiment [19] it was 1.89 µM (inactive); in experiment [9], 1.79 µM (inactive); in [10], 2.51 µM (inactive); in experiment [11], 1.51 µM (inactive). In addition, the GI50 in experiment [12] is 4.35 µM (inactive); in [13], 3.21 µM (inactive); in [14] it was 2.96 µM (inactive); in experiment [15] it was 5.27 µM (inactive); in experiment [16], 3.36 µM (inactive).

As to `NC(CCOCCP(=O)(O)CCC1C=CC=CC1)C(=O)O` (configuration not stated), the GI50 in [2], in experiment [3], in [18], in experiment [5], in [6] and in experiment [7] was > 100 µM (inactive) in each case. In addition, the GI50 in [19], in experiment [9], in experiment [10], in experiment [11], in [12] and in [13] was > 100 µM (inactive) throughout. Moreover, the GI50 in experiment [14], in experiment [15] and in experiment [16] was > 100 µM (inactive) throughout.

Regarding `CN(c1ccccc1)c1c(-c2ccccc2)c(=O)oc2c1ccc1occc12`, the GI50 in experiment [17] was > 100 µM (inactive); in [18] it was > 100 µM (inactive); in [4], > 100 µM (inactive); in experiment [5] it was > 100 µM (inactive); in experiment [8] it was 0.348 µM (active); in experiment [9], > 76.7 µM (inactive). Further, the GI50 is > 100 µM (inactive) in experiment [10], > 100 µM (inactive) in [11], > 81.8 µM (inactive) in [12] and > 100 µM (inactive) in experiment [16].

In the case of `CC(C)(CCCCC(C)(C)NC1=NCCO1)NC1=NCCO1`, the GI50 in [17], in [2], in experiment [18], in experiment [4], in experiment [5] and in experiment [6] was > 10 µM (inactive) throughout. In addition, the GI50 in experiment [7], in experiment [19], in [8], in experiment [9], in experiment [10] and in experiment [11] was > 10 µM (inactive) throughout. Moreover, the GI50 in [12], in experiment [13], in experiment [14] and in [15] was > 10 µM (inactive) in each case.

As for `O=C1C(=CNC(=S)c2ccccc2)C(=O)c2ccccc21`, the GI50 in experiment [1] was 27.5 µM (inactive); in [2], 38.9 µM (inactive); in experiment [3] it was 28.1 µM (inactive); in experiment [18], 37 µM (inactive); in [4], 91.8 µM (inactive); in experiment [5], 35.2 µM (inactive). Besides, the GI50 in experiment [6] is 55.2 µM (inactive); in experiment [7] it was 71.8 µM (inactive); in [19] it was 52.7 µM (inactive); in experiment [8] it was > 100 µM (inactive); in [9] it was 70.8 µM (inactive); in experiment [10] it was 21 µM (inactive). Besides, the GI50 in experiment [11] was 61.5 µM (inactive); in [12], 38.1 µM (inactive); in experiment [13], 25.2 µM (inactive); in [15], 41.6 µM (inactive); in [16] it was 55.1 µM (inactive).

Consider `CC1C(NNC(N)=O)Oc2cc3c(cc2C1c1ccccc1O)OCO3` (configuration not stated), for which the GI50 in experiment [17] was 25.9 µM (inactive); in [2] it was 39.5 µM (inactive); in [3], 52.6 µM (inactive); in experiment [18], 84.3 µM (inactive); in [4] it was 31.3 µM (inactive); in experiment [5], 36.8 µM (inactive). Besides, the GI50 in experiment [6] is 55.7 µM (inactive); in experiment [7], 20.5 µM (inactive); in [19], 22.3 µM (inactive); in experiment [8] it was 34.6 µM (inactive); in [9], 38.8 µM (inactive); in [10], 14.8 µM (inactive). Further, the GI50 in experiment [13] is 21.5 µM (inactive); in experiment [14] it was 15 µM (inactive); in [15], 46 µM (inactive); in experiment [16], 35.7 µM (inactive).

`NC1C2C=CC(C2)C1C(=O)O` (configuration not stated): the GI50 in experiment [1], in experiment [17], in [2], in experiment [3], in experiment [4] and in [5] was > 100 µM (inactive) throughout. Moreover, the GI50 in [6], in experiment [7], in experiment [19], in experiment [8], in experiment [10] and in experiment [11] was > 100 µM (inactive) in each case. Moreover, the GI50 in experiment [12], in [13] and in experiment [15] was > 100 µM (inactive) each time.

With `CC(=O)O[C@H]1[C@@H](OC(C)=O)C(C)(C)/C=C/[C@H](C)C(=O)[C@@]2(OC(C)=O)C[C@@](C)(OC(C)=O)[C@H](OC(C)=O)[C@@H]2[C@H]2OC(=O)CC[C@@]2(OC(=O)c2ccccc2)[C@@H]1OCC(C)C`, the GI50 was 15.6 µM (inactive) in experiment [2]; 67.6 µM (inactive) in experiment [3]; 19.5 µM (inactive) in [18]; 6.04 µM (inactive) in experiment [4]; 37 µM (inactive) in experiment [5]; > 100 µM (inactive) in experiment [6]. Further, the GI50 in experiment [7] was 8.39 µM (inactive); in experiment [19], 7.11 µM (inactive); in [8] it was 92 µM (inactive); in experiment [9], 4.1 µM (inactive); in experiment [10], 32.4 µM (inactive); in experiment [11] it was 69 µM (inactive). Also, the GI50 in experiment [12] was 62.7 µM (inactive); in [15] it was 3.61 µM (inactive); in experiment [16] it was 85.1 µM (inactive).

Take `O=C1C=CC2(O[C@@H](Cc3ccccc3)[C@H](Cc3ccccc3)O2)C(SC(=O)c2ccccc2)C1` (some centres not stated): the GI50 in experiment [1] is 0.152 µM (active); in experiment [17], 4.93 µM (inactive); in [2] it was 0.929 µM (active); in experiment [3], 0.34 µM (active); in experiment [4] it was 1.11 µM (active); in [5], 0.568 µM (active). Moreover, the GI50 in experiment [6] was 2.52 µM (inactive); in experiment [7], 2.11 µM (inactive); in experiment [19] it was 0.853 µM (active); in experiment [8] it was 1.52 µM (inactive); in [9] it was 2.59 µM (inactive); in experiment [11] it was 1.07 µM (active). Further, the GI50 in experiment [12] was 1.47 µM (inactive); in experiment [13] it was 0.292 µM (active); in experiment [14] it was 0.138 µM (active); in [15], 1.54 µM (inactive); in experiment [16], 1.18 µM (inactive).

Consider `CC(=O)NC1CC(C(C)(C)NC(C)=O)CC=C1C` (configuration not stated), for which the GI50 in [1], in experiment [3], in experiment [18], in [4], in experiment [5] and in experiment [6] was > 100 µM (inactive) in each case. For the same molecule, the GI50 in experiment [7], in experiment [19], in experiment [9], in experiment [10], in [11] and in experiment [12] was > 100 µM (inactive) in each case. The GI50 in experiment [14], in experiment [15] and in [16] was > 100 µM (inactive) each time.

(Values after ChEMBL document CHEMBL1201862, “PubChem BioAssay data set” (2004).)
